{"source": "patent US11292807B2", "about": "(OCEANS LTD., priority 2015, dated 2022)", "key": {"[1]": {"tested_on": "SKOV3 (ovarian adenocarcinoma)", "experiment": "CIMA assay, cell viability, SKOV3", "conditions": "for Fold change in viability AVG: SKOV"}, "MDA-MB [2]": {"tested_on": "MDA-MB", "conditions": "MDA-MB"}, "[3]": {"tested_on": "U373 (glioblastoma-astrocytoma)", "experiment": "CIMA assay, cell viability, U373", "conditions": "for Fold change in viability AVG: U373"}, "[4]": {"tested_on": "CCD1079SK (fibroblast, noncancerous but proliferating)", "experiment": "CIMA assay, cell viability, CCD1079SK", "conditions": "CCD", "description": "(§1) Stock solutions of the extracts were prepared in dimethylsulfoxide (DMSO) at 10 mg/mL and stored in 200 μl aliquots at −20° C. until analysis. This preparation ensured that the DMSO delivered to cells in culture never exceeded 1%.\n(§2) Prepared extracts were assessed following chronic exposure conditions in which cells were seeded at 2×10^3 cells/well (96 well-plate) and incubated with test compounds for 72 h. Each compound was evaluated over a range of concentrations (0, 10, 25, 50 or 100 μg/ml). Cell proliferation was initially assessed using a standard colorimetric indicator of metabolic activity (CIMA) assay. In this assay, tetrazole reduction was evaluated as a measure of metabolic function that evaluates mitochondrial activity to determine the extent of cell proliferation within a culture. This assay is based on the reduction of yellow tetrazolium salt to purple formazan by mitochondrial reductases enzyme in viable cells, resulting in a color changed that confers a change in absorbance."}, "PC3": {"tested_on": "PC3", "experiment": "CIMA assay, cell viability, PC3", "conditions": "for Fold change in viability AVG: PC3"}, "A549 (lung carcinoma)": {"tested_on": "A549 (lung carcinoma)", "experiment": "CIMA assay (colorimetric indicator of metabolic activity), cell viability, A549", "conditions": "for Fold change in viability AVG: A549"}, "in vitro": {"experiment": "in vitro", "conditions": "human, Average cell viability", "description": "as §1, §2"}, "[5]": {"tested_on": "THP-1 (acute monocytic leukemia)", "experiment": "CIMA assay, cell viability, THP-1", "conditions": "for Fold change in viability AVG: THP-1", "description": "as §1, §2"}, "MDA-MB [6]": {"tested_on": "MDA-MB", "experiment": "cells", "conditions": "Homo sapiens, read-out: Average cell viability, MDA-MB"}, "cancer cell lines": {"tested_on": "cancer cell lines", "experiment": "Anti-cancer screening of extracts, fractions and compounds (CIMA assay, bioassay-guided fractionation)", "format": "cell-based, human", "conditions": "in vitro", "method": "Lead crude extracts were fractionated into five fractions by C-18 SPE column separation using 15 ml each of 5% methanol (fraction 1), 25% methanol (fraction 2), 50% methanol (fraction 3), 100% methanol (fraction 4) and […] (fraction 5). Extracts were fractionated and the resulting fractions were evaluated using CIMA assay. Bio-assay guided fractionation provided detailed information regarding the compound(s) responsible for specific bioactivity."}}, "note": "Where two headings read alike, the source gives them in different places.", "data": [{"compound": "CCCCC/C=C\\C/C=C\\CCCCCCCC(=O)O", "note": "[Compound 20, linoleic acid]", "values": [{"measurement": "viability at 1 µg/mL", "setting": "[1]; Homo sapiens, SK-OV-3, read-out: Average cell viability, SKOV, 1 ug/mL", "result": 85, "unit": "%"}, {"measurement": "viability at 10 µg/mL", "setting": "[1]; Homo sapiens, SK-OV-3, read-out: Average cell viability, SKOV, 10 ug/mL", "result": 88, "unit": "%"}, {"measurement": "viability at 50 µg/mL", "setting": "[1]; Homo sapiens, SK-OV-3, read-out: Average cell viability, SKOV, 50 ug/mL", "result": 67, "unit": "%"}, {"measurement": "viability at 100 µg/mL", "setting": "[1]; Homo sapiens, SK-OV-3, read-out: Average cell viability, SKOV, 100 ug/mL", "result": 26, "unit": "%"}, {"measurement": "Fold change in viability AVG", "setting": "[1]; 1 ug/mL", "result": 0.91}, {"measurement": "Fold change in viability AVG", "setting": "[1]; 10 ug/mL", "result": 0.95}, {"measurement": "Fold change in viability AVG", "setting": "[1]; 50 ug/mL", "result": 0.73}, {"measurement": "Fold change in viability AVG", "setting": "[1]; 100 ug/mL", "result": 0.28}, {"measurement": "MDA-MB AVG", "setting": "MDA-MB [2]; sample at 1 ug/mL", "result": 1.09}, {"measurement": "MDA-MB AVG", "setting": "MDA-MB [2]; sample at 10 ug/mL", "result": 1.04}, {"measurement": "MDA-MB AVG", "setting": "MDA-MB [2]; sample at 50 ug/mL", "result": 0.19}, {"measurement": "MDA-MB AVG", "setting": "MDA-MB [2]; sample at 100 ug/mL", "result": 0.16}, {"measurement": "Fold change in viability AVG", "setting": "MDA-MB [2]; 1 ug/mL", "result": 1.09}, {"measurement": "Fold change in viability AVG", "setting": "MDA-MB [2]; 10 ug/mL", "result": 1.04}, {"measurement": "Fold change in viability AVG", "setting": "MDA-MB [2]; 50 ug/mL", "result": 0.19}, {"measurement": "Fold change in viability AVG", "setting": "MDA-MB [2]; 100 ug/mL", "result": 0.16}, {"measurement": "viability at 1 µg/mL", "setting": "[3]; Homo sapiens, U373 MG, read-out: Average cell viability, U373, 1 ug/mL", "result": 87, "unit": "%"}, {"measurement": "viability at 10 µg/mL", "setting": "[3]; Homo sapiens, U373 MG, read-out: Average cell viability, U373, 10 ug/mL", "result": 89, "unit": "%"}, {"measurement": "viability at 50 µg/mL", "setting": "[3]; Homo sapiens, U373 MG, read-out: Average cell viability, U373, 50 ug/mL", "result": 7, "unit": "%"}, {"measurement": "viability at 100 µg/mL", "setting": "[3]; Homo sapiens, U373 MG, read-out: Average cell viability, U373, 100 ug/mL", "result": 5, "unit": "%"}, {"measurement": "U373 AVG", "setting": "[3]; U373, sample at 1 ug/mL", "result": 0.89}, {"measurement": "U373 AVG", "setting": "[3]; U373, sample at 10 ug/mL", "result": 0.90}, {"measurement": "U373 AVG", "setting": "[3]; U373, sample at 50 ug/mL", "result": 0.07}, {"measurement": "U373 AVG", "setting": "[3]; U373, sample at 100 ug/mL", "result": 0.05}, {"measurement": "Fold change in viability AVG", "setting": "[3]; 1 ug/mL", "result": 0.89}, {"measurement": "Fold change in viability AVG", "setting": "[3]; 10 ug/mL", "result": 0.90}, {"measurement": "Fold change in viability AVG", "setting": "[3]; 50 ug/mL", "result": 0.07}, {"measurement": "Fold change in viability AVG", "setting": "[3]; 100 ug/mL", "result": 0.05}, {"measurement": "Fold change in viability AVG", "setting": "[4]; 1 ug/mL", "result": 1.02}, {"measurement": "Fold change in viability AVG", "setting": "[4]; 10 ug/mL", "result": 1.07}, {"measurement": "Fold change in viability AVG", "setting": "[4]; 50 ug/mL", "result": 0.15}, {"measurement": "Fold change in viability AVG", "setting": "[4]; 100 ug/mL", "result": 0.06}, {"measurement": "viability at 1 µg/mL", "setting": "PC3; Homo sapiens, PC-3, read-out: Average cell viability, PC3, 1 ug/mL", "result": 91, "unit": "%"}, {"measurement": "viability at 10 µg/mL", "setting": "PC3; Homo sapiens, PC-3, read-out: Average cell viability, PC3, 10 ug/mL", "result": 97, "unit": "%"}, {"measurement": "viability at 50 µg/mL", "setting": "PC3; Homo sapiens, PC-3, read-out: Average cell viability, PC3, 50 ug/mL", "result": 11, "unit": "%"}, {"measurement": "viability at 100 µg/mL", "setting": "PC3; Homo sapiens, PC-3, read-out: Average cell viability, PC3, 100 ug/mL", "result": 6, "unit": "%"}, {"measurement": "PC3 AVG", "setting": "PC3; PC3, sample at 1 ug/mL", "result": 0.94}, {"measurement": "PC3 AVG", "setting": "PC3; PC3, sample at 10 ug/mL", "result": 1.00}, {"measurement": "PC3 AVG", "setting": "PC3; PC3, sample at 50 ug/mL", "result": 0.12}, {"measurement": "PC3 AVG", "setting": "PC3; PC3, sample at 100 ug/mL", "result": 0.06}, {"measurement": "Fold change in viability AVG", "setting": "PC3; 1 ug/mL", "result": 0.94}, {"measurement": "Fold change in viability AVG", "setting": "PC3; 10 ug/mL", "result": 1.00}, {"measurement": "Fold change in viability AVG", "setting": "PC3; 50 ug/mL", "result": 0.12}, {"measurement": "Fold change in viability AVG", "setting": "PC3; 100 ug/mL", "result": 0.06}, {"measurement": "A549 AVG", "setting": "A549 (lung carcinoma); A549, sample at 1 ug/mL", "result": 1.11}, {"measurement": "A549 AVG", "setting": "A549 (lung carcinoma); A549, sample at 10 ug/mL", "result": 1.12}, {"measurement": "A549 AVG", "setting": "A549 (lung carcinoma); A549, sample at 50 ug/mL", "result": 0.66}, {"measurement": "A549 AVG", "setting": "A549 (lung carcinoma); A549, sample at 100 ug/mL", "result": 0.13}, {"measurement": "Fold change in viability AVG", "setting": "A549 (lung carcinoma); 1 ug/mL", "result": 1.11}, {"measurement": "Fold change in viability AVG", "setting": "A549 (lung carcinoma); 10 ug/mL", "result": 1.12}, {"measurement": "Fold change in viability AVG", "setting": "A549 (lung carcinoma); 50 ug/mL", "result": 0.66}, {"measurement": "Fold change in viability AVG", "setting": "A549 (lung carcinoma); 100 ug/mL", "result": 0.13}, {"measurement": "viability at 1 µg/mL", "setting": "A549 (lung carcinoma); Homo sapiens, A549, read-out: Average cell viability, A549, 1 ug/mL", "result": 95, "unit": "%"}, {"measurement": "viability at 10 µg/mL", "setting": "A549 (lung carcinoma); Homo sapiens, A549, read-out: Average cell viability, A549, 10 ug/mL", "result": 96, "unit": "%"}, {"measurement": "viability at 50 µg/mL", "setting": "A549 (lung carcinoma); Homo sapiens, A549, read-out: Average cell viability, A549, 50 ug/mL", "result": 56, "unit": "%"}, {"measurement": "viability at 100 µg/mL", "setting": "A549 (lung carcinoma); Homo sapiens, A549, read-out: Average cell viability, A549, 100 ug/mL", "result": 11, "unit": "%"}, {"measurement": "viability at 72 h, 1 ug/mL", "setting": "in vitro", "result": 93, "unit": "%"}, {"measurement": "viability at 72 h, 10 ug/mL", "setting": "in vitro", "result": 97, "unit": "%"}, {"measurement": "viability at 72 h, 50 ug/mL", "setting": "in vitro", "result": 13, "unit": "%"}, {"measurement": "viability at 72 h, 100 ug/mL", "setting": "in vitro", "result": 6, "unit": "%"}, {"measurement": "viability at 1 µg/mL", "setting": "[5]; Homo sapiens, THP-1, read-out: Average cell viability, THP-1, 1 ug/mL", "result": 91, "unit": "%"}, {"measurement": "viability at 10 µg/mL", "setting": "[5]; Homo sapiens, THP-1, read-out: Average cell viability, THP-1, 10 ug/mL", "result": 91, "unit": "%"}, {"measurement": "viability at 50 µg/mL", "setting": "[5]; Homo sapiens, THP-1, read-out: Average cell viability, THP-1, 50 ug/mL", "result": 21, "unit": "%"}, {"measurement": "viability at 100 µg/mL", "setting": "[5]; Homo sapiens, THP-1, read-out: Average cell viability, THP-1, 100 ug/mL", "result": 17, "unit": "%"}, {"measurement": "THP-1 AVG", "setting": "[5]; THP-1, sample at 1 ug/mL", "result": 1.04}, {"measurement": "THP-1 AVG", "setting": "[5]; THP-1, sample at 10 ug/mL", "result": 1.03}, {"measurement": "THP-1 AVG", "setting": "[5]; THP-1, sample at 50 ug/mL", "result": 0.24}, {"measurement": "THP-1 AVG", "setting": "[5]; THP-1, sample at 100 ug/mL", "result": 0.19}, {"measurement": "Fold change in viability AVG", "setting": "[5]; 1 ug/mL", "result": 1.04}, {"measurement": "Fold change in viability AVG", "setting": "[5]; 10 ug/mL", "result": 1.03}, {"measurement": "Fold change in viability AVG", "setting": "[5]; 50 ug/mL", "result": 0.24}, {"measurement": "Fold change in viability AVG", "setting": "[5]; 100 ug/mL", "result": 0.19}, {"measurement": "viability at 1 µg/mL", "setting": "MDA-MB [6]; 1 ug/mL", "result": 100, "unit": "%"}, {"measurement": "viability at 10 µg/mL", "setting": "MDA-MB [6]; 10 ug/mL", "result": 95, "unit": "%"}, {"measurement": "viability at 50 µg/mL", "setting": "MDA-MB [6]; 50 ug/mL", "result": 17, "unit": "%"}, {"measurement": "viability at 100 µg/mL", "setting": "MDA-MB [6]; 100 ug/mL", "result": 15, "unit": "%"}]}, {"compound": "CO[C@H]1CC(C)(C)C(/C=C/C(C)=C/C=C/C(C)=C/C=C/C=C(C)/C=C/C=C(C)/C=C/[C@H]2C(C)=C[C@@H](O)CC2(C)C)=C(C)C1=O", "note": "[C]", "values": [{"measurement": "anti-cancer activity (in words)", "setting": "cancer cell lines", "result": "anti-cancer activity"}]}, {"compound": "CO[C@H]1CC(C)(C)C(/C=C/C(C)=C/C=C/C(C)=C/C=C/C=C(C)/C=C/C=C(C)/C=C/C2=C(C)C[C@@H](O)CC2(C)C)=C(C)C1=O", "note": "[D]", "values": [{"measurement": "anti-cancer activity (in words)", "setting": "cancer cell lines", "result": "anti-cancer activity"}]}]}
